Values of other authors in US5989583A, “Solid lipid compositions of lipophilic compounds for enhanced oral bioavailability” (Pharmos Ltd., priority 1996, dated 1999).

Experiments:
[1] = for Water solubility (in words): water / aqueous solutions
[2] = test system: patients with severe heart failure; conditions: 40 patients with severe heart failure, long term treatment
periodontal disease = conditions: supplements containing CoQ10
[3] = test system: cultured cerebellar neurons; conditions: age-related and excitotoxin-induced degeneration
[4] = 20 mg THC in a sesame oil formulation

In the case of `CCCCCCC(C)(C)c1cc(O)c2c(c1)OC(C)(C)[C@H]1CC=C(CO)C[C@H]21` [Dexanabinol, (+)-(3S, 4S) -7-hydroxy-Δ^6-tetra hydrocannabinol-1,1-dimetylheptyl], the “oral bioavailability / systemic availability” value is listed as “poor oral bioavailability” and the Water solubility ([1]; water) is listed as “less than 50 μg/ml”.
For `CCCCCc1cc(O)c2c(c1)OC(C)(C)c1ccc(C)cc1-2` [cannabinol], the “Water solubility (in words)” value [1] is given as “a few micrograms/ml or less”.
In the case of `CCCCCc1cc(O)c2c(c1)OC(C)(C)[C@@H]1CCC(C)=C[C@@H]21` [Δ^1 -THC, Δ^1 -tetrahydrocannabinol], the “Water solubility (in words)” value [1] is given as “a few micrograms/ml or less”.
For `C=C(C)[C@@H]1CCC(C)=C[C@H]1c1c(O)cc(CCCCC)cc1O` [cannabidiol], the “Water solubility (in words)” value [1] is listed as “a few micrograms/ml or less”.
For `CCCCCc1cc(O)c2c(c1)OC(C)(C)[C@@H]1CC=C(C)C[C@@H]21` [Δ^6 -THC, Δ^6 -tetrahydrocannabinol], the “Water solubility (in words)” value [1] is given as “a few micrograms/ml or less”.
In the case of `COC1=C(OC)C(=O)C(C/C=C(\C)CC/C=C(\C)CC/C=C(\C)CC/C=C(\C)CC/C=C(\C)CC/C=C(\C)CC/C=C(\C)CC/C=C(\C)CC/C=C(\C)CCC=C(C)C)=C(C)C1=O` [CoQ10, 2,3-dimethoxy-5-methyl-6-decaprenyl-1,4-benzoquinone], the “oral bioavailability / systemic availability” value is listed as “very low”, the “patients showing improvement in their condition” value [2] is listed as 69% and the “Effect on periodontal disease” value (periodontal disease) is listed as “the progress of the disease was not only stopped, but accelerated tissue healing was initiated as well”. The “Protection of neurons against degeneration” value [3] was “protect cultured cerebellar neurons against age-related and excitotoxin-induced degeneration” and the “Water solubility (in words)” value [1] was “practically insoluble in water”.
In the case of `CCCCCc1cc(O)c2c(c1)OC(C)(C)[C@@H]1CCC(C)=C[C@@H]21` [THC, tetrahydrocannabinol], the “maximal plasma levels after oral dosing” value [4] is listed as “around 10 ng/ml”.
